Series [1] in a line: Plasma and brain PK (IV / IP dosing).
Another series in a line: Solubility remark. Conditions: remark in words. Format: physicochemical.
A short description of series [2]: Plasma and brain PK (5 mg/kg IV). Format: in vivo. The note with it: female CD-1 mice; for Tmax / Cmax / AUC(0-t): mouse; for AUC(0-t): read-out: Plasma AUClast.
Another series can be described thus: in vitro. Conditions: human, Caco-2.
The next series is described as follows: Microsomes stability. In kind it is in vitro ADME.
Series [3] in a line: BBB penetration (method not described). The note with it: brain / plasma, iv, 5 mg/kg; read-out: unlabelled value after the PK data (matches brain/plasma AUClast ratio, 5mpk IV).
Setting [4] is: brain, read-out: Brain Tmax (converted).

SMILES strings stand for the structures.

The term Cmax denotes the highest concentration seen after dosing. In general, Tmax refers to the time at which the peak concentration occurs. With `Br.Cc1ccc(CC(C(=O)N2CC(C#N)C2)n2c(=N)n(C(C)c3ccc(C)cc3)c3cccnc32)cc1` (single isomer, unassigned) [WZ-II-253], in series [1] (Brain PK, 5 mg/Kg (5mpk) IV), the Cl_F_obs came out at 9.5 mL/min and the Vz_F_obs is given as 642 mL,. Also, in series [1] (Plasma PK, 5 mg/Kg (5mpk) IV), the Cl_F_obs turned out to be 3.86 mL/min and the Vz_F_obs is on record as 221 mL. In series [1] (brain, iv, 5 mg/kg), the AUC(0-t) was 209 ng·h/mL, the peak level (Cmax) was 218 ng/mL, the Tmax was 10 min and the half-life was 47 min. In addition, in series [1] (plasma, iv, 5 mg/kg), the AUC(0-t) was found to be 518 ng·h/mL, the concentration peaked (Cmax) at 651 ng/mL, the Tmax was 10 min and the half-life came out at 40 min.
On to `Cc1ccc(Cn2c(=N)n(C(CO)Cc3cc[nH]c(=O)c3)c3ccccc32)cc1` (centres unmarked) [ww4-89], for which the solubility entry in the series “Solubility remark” was “solubility issue along with tauto- meriza- tion, only proton NMR and LC-MS”.
On to `Cc1ccc(CC(CNC(=O)CO)n2c(=N)n([C@@H](C)c3ccc(C)cc3)c3ccccc32)cc1` (some centres unmarked) [ww5-189], for which, in series [2] (brain), the “Brain AUClast” value amounted to 11291.545 ng·min/mL, the “Brain Cmax” value worked out at 15.29 ng/mL and the “Brain HL_Lambda_z” value is 728.6 min. Besides, the Tmax in series [2] (setting [4]) is 30 min. In addition, in series [2] (plasma), the peak concentration (Cmax) was 600 ng/mL, the AUC(0-t) was 691 ng·h/mL, the “Plasma Cl_F_obs” value amounted to 2.72 mL/min and the “Plasma HL_Lambda_z” value stood at 230.4 min. Besides, the “Plasma Vz_F_obs” value in series [2] (plasma) was 904.1 mL. The time of peak concentration (Tmax) in series [2] (plasma, read-out: Plasma Tmax) was found to be 10 min.
As usually defined, the Papp A→B is how fast a substance crosses the layer from the apical side. A low value points to poor permeation. In general, Papp B→A refers to how fast a substance crosses the layer from the basolateral side. In the series “in vitro”, `Cc1ccc(CC(CNC(=O)CF)n2c(=N)n(Cc3ccc(C)cc3)c3ccccc32)cc1` (centres unmarked) [ww5-308] registered a Papp A→B of 3.05 ×10⁻⁶ cm/s and a Papp B→A of 8.72 ×10⁻⁶ cm/s.
One may read the microsomal CLint as a measure of how fast metabolising enzymes remove a compound, apart from limits set by blood flow. High values mean faster metabolism, low ones greater metabolic stability. As to `COCC(Cc1ccc(C)cc1)n1c(=N)n(C(c2ccc(C)cc2)C2CC2)c2ccccc21` (single isomer, unassigned) [ww6-61], the intrinsic metabolic clearance (microsomal CLint) in the series “Microsomes stability” worked out at 17 µL/min/mg. Also, the half-life in the series “Microsomes stability” (read-out: Microsomes stability T1/2) was 19 min. Also, in series [2] (brain), the “Brain AUClast” value is 38968.815 ng·min/mL, the “Brain Cmax” value worked out at 143.31 ng/mL and the “Brain HL_Lambda_z” value worked out at 134.1 min. For the same compound, the time to peak (Tmax) in series [2] (setting [4]) was 30 min. Besides, in series [2] (plasma), the peak level (Cmax) was 841 ng/mL, the AUC(0-t) came out at 986 ng·h/mL, the “Plasma Cl_F_obs” value is 1.922 mL/min and the “Plasma HL_Lambda_z” value amounted to 74.04 min. In series [2] (plasma), the “Plasma Vz_F_obs” value was determined as 205.3 mL. The Tmax in series [2] (plasma, read-out: Plasma Tmax) is 10 min.
For `Br.COCC(Cc1ccc(C)cc1)n1c(=N)n(C(C)c2ccc(C)cc2)c2cccnc21` (single isomer, unassigned) [WZ-II-149], the Kp in series [3] was found to be 1.13. Also, the Cl_F_obs was 1491.875 mL/min in series [1] (Brain PK, 5 mg/Kg (5mpk) IV); 24837.56 mL/min in series [1] (Brain PK, 10 mpk IP); 1689.5566 mL/min in series [1] (Plasma PK, 5 mg/Kg (5mpk) IV); 3706.43 mL/min in series [1] (Plasma PK, 10 mpk IP). Besides, the Vz_F_obs was 286490.1 mL in series [1] (Brain PK, 5 mg/Kg (5mpk) IV); 2306714 mL in series [1] (Brain PK, 10 mpk IP); 101565.51 mL in series [1] (Plasma PK, 5 mg/Kg (5mpk) IV); 208114 mL, in series [1] (Plasma PK, 10 mpk IP). The HL_Lambda_z in series [1] (Brain PK, 10 mpk IP) was determined as 64.37 min; in series [1] (Plasma PK, 10 mpk IP), 38.92 min. Further, the AUC(0-t) in series [1] (brain, ip, 10 mg/kg) was 134 ng·h/mL; in series [1] (brain, iv, 5 mg/kg) it was 1280 ng·h/mL; in series [1] (plasma, ip, 10 mg/kg), 1000 ng·h/mL; in series [1] (plasma, iv, 5 mg/kg), 1130 ng·h/mL. For the same compound, the maximum concentration (Cmax) in series [1] (brain, ip, 10 mg/kg) was determined as 77.8 ng/mL; in series [1] (brain, iv, 5 mg/kg) it was 1300 ng/mL; in series [1] (plasma, ip, 10 mg/kg), 638 ng/mL; in series [1] (plasma, iv, 5 mg/kg) it was 1050 ng/mL. Also, the time of peak concentration (Tmax) in series [1] (brain, ip, 10 mg/kg) was determined as 10 min; in series [1] (brain, iv, 5 mg/kg), 10 min; in series [1] (plasma, ip, 10 mg/kg), 10 min; in series [1] (plasma, iv, 5 mg/kg) it was 10 min. Moreover, the half-life is 133 min in series [1] (brain, iv, 5 mg/kg) and 41.7 min in series [1] (plasma, iv, 5 mg/kg).
In series [1] (Brain PK, 5 mg/Kg (5mpk) IV), `Br.Cc1ccc(C[C@@H](C(=O)N2CC3(COC3)C2)n2c(=N)n(C(C)c3ccc(C)cc3)c3ccccc32)cc1` (stereo partly drawn) [WZ-II-151, (2S)-2-(2-imino-3-(1-(p-tolyl)ethyl)-2,3-dihydro-1H-benzo[d]imidazol-1-yl)-1-(2-oxa-6-azaspiro[3.3]heptan-6-yl)-3-(p-tolyl)propan-1-one] yielded a Cl_F_obs of 22.9 mL/min and a Vz_F_obs of 8876 mL. Also, in series [1] (Plasma PK, 5 mg/Kg (5mpk) IV), the Cl_F_obs came out at 2.39 mL/min and the Vz_F_obs was 453 mL. Further, in series [1] (brain, iv, 5 mg/kg), the AUC(0-t) was 93.1 ng·h/mL, the concentration peaked (Cmax) at 22.7 ng/mL, the Tmax came to 10 min and the half-life was determined as 269 min. Also, in series [1] (plasma, iv, 5 mg/kg), the AUC(0-t) amounted to 908 ng·h/mL, the highest level (Cmax) was 869 ng/mL, the Tmax stood at 10 min and the half-life worked out at 131 min.
As a reminder, the efflux ratio is a quotient of directional permeabilities that is used to spot active efflux. On to `C/N=c1\n(Cc2ccc(C)cc2)c2ccccc2n1C(CO)Cc1ccc(C)cc1` (centres unmarked) [ww4-276], for which, in the series “in vitro”, the apparent permeability from apical to basolateral (Papp A→B) came to 2.19 ×10⁻⁶ cm/s, the basolateral-to-apical permeability (Papp B→A) was determined as 5.47 ×10⁻⁶ cm/s and the efflux ratio was found to be 2.5.
